Assay [1] relates to severe T8 contusion/compression SCI. Briefly: Preclinical SCI model: locomotor test (BMS) and survival. It counts as in vivo, mouse. The conditions noted are these: IP daily 5 and 25 mg/kg/day. As to the method:
FIG. 8: Timeline of the preclinical in vivo animal study conducted as evidence of claims. Mice underwent baseline cognitive testing and blood collection immediately before SCI. Mice sustained an SCI at 8 weeks of age. SCI model: thoracic-8 contusion (50 kdyne impact) and compression ([…]), a severe contusion/compression model that accurately represents injuries seen in the clinic. 5c(i) (5 or 25 mg/kg/day) or Vehicle were administered IP daily starting 4 hours post injury to reflect the delay found in the clinic. Locomotor behavioral testing (BMS and Rotarod) were conducted weekly for 7 weeks. 7 weeks after injury, the mice underwent cognitive behavioral testing (NOR and Y-maze) and blood collection once again. Mice were euthanized 7 weeks after sustaining an SCI and underwent perfusion and tissue preparations for further analysis.
9A) BMS Score and 9B) BMS Sub Score were recorded and graphed in relation to time after injury. 9C) Percent of mice surviving at 49 days post injury. […] N=6-8. Graphs show mean and SEM. […] Student's T-test.
Open Field Basso Mouse Scale (BMS): Mice were placed in an open field for 5 minutes to allow mice to freely roam to visually evaluate (by 2 individuals) the following parameters: ankle movements, stepping pattern, coordination, paw placement, trunk instability, and tail position. The mice were scored according to the BMS scoring system^59 with a minimum score of 0 (no movement) to a maximum score of 9 (normal locomotion) followed by the BMS Sub score (assessing stepping patterns, tail movement, trunk posture, paw position, and coordination)^12,60. Rotarod: Mice were placed on a rod rotating at increasing speeds from 5 to 45 rotations per minute (rpm) in a 3-minute interval with constant acceleration to assess strength, endurance, and motor coordination^12,60. Mice were first acclimated to the rotarod with 5 habituation sessions the week before injury. Baseline testing was conducted 1 day before injury. […]

For assay [2], the system named is cells lacking TrkB/TrkC receptors. Kind of assay: Binding and activity in Trk negative cells (HEK293 and NIH/3T3). The conditions noted are these: non-transfected HEK293 and NIH/3T3. How it is done:
FIG. 2: 5c(i) binds to TrkB and TrkC receptors. Transfected cell lines that are Trk positive cells (TrkB-HEK293 and TrkC-NIH/3T3) and non-transfected cell lines that are Trk negative cells (HEK293 and NIH/3T3) were seeded approximately 2,000 cells/well in a 96-well plate and incubated for 24 hours. The cells were treated with a serial dilution of compound (0, 10, 25, 50, 100, 200, 500, and 1000 nM) in serum-free media (SFM) with and without A) 0.6 nM of BDNF (TrkB-HEK293 and HEK293) and B) 0.2 nM of NT-3 (TrkC-NIH/3T3 and NIH/3T3) for 2.5 h. After that, the cells were washed with PBS once to remove unbound compounds and dissolved in 1% (w/v) aqueous sodium dodecyl sulfate. Cell-associated fluorescence was then determined by measuring the emission of the resulting solution upon λex (540/25 nm) and λem (620/40 nm) using Agilent BioTek Synergy H4 Hybrid Microplate Reader. Kd was calculated by GraphPad Prism 9 using Binding saturation (One site—Specific binding).
Transfected cell lines that are Trk positive cells (TrkA-HeLa, TrkB-HEK293, and TrkC-NIH/3T3) and non-transfected cell lines that are Trk negative cells (HeLa, HEK293, and NIH/3T3) were seeded at 2,000 cells/well in a 96-well plate (0.32 cm^2 growth area) and incubated inside a 5% CO2 incubator at 37° C. for 24 hours. […] The dissociation constant (Kd) was calculated using binding saturation (One site—Specific binding).

For the substance “C-DIRG-C BODIPY® (fluorescent dye) [5c(i)]”, the “mice surviving at 49 days post injury” value in assay [1] is “improves survival”. For the same substance, in assay [1] (7 weeks), the “BMS Sub score” value is reported as “significantly improved” and the BMS score entry is “significantly improved”. Further, the “binding and biological activity in cells lacking TrkB/TrkC receptors” value in assay [2] was “lack of binding and biological activity”.

Values taken from patent US20260042801A1, “COMPOSITIONS AND METHODS FOR DYE-BOUND CYCLIZED PEPTIDES FOR MEDICAL USE” (The Texas A&M University System, priority 2022, published 2026).
